Laboratory results as given in ChEMBL document CHEMBL3102700, “Truncated norzoanthamine exhibiting similar collagen protection activity, toward a promising anti-osteoporotic drug” (Bioorg Med Chem Lett, 2014).
The source made the active and inactive calls. The calls are words filed in the database; no cut-off is given here.

What was measured:
[1] = Collagen protection activity of the compound assessed as residual collagen level at 0.1 uM after 180 mins by Sirius red colorimetric assay
[2] = Collagen protection activity of the compound assessed as residual collagen level after 180 mins by Sirius red colorimetric assay
[3] = Collagen protection activity of the compound assessed as residual collagen level at 1 uM after 180 mins by Sirius red colorimetric assay
[4] = Collagen protection activity of the compound assessed as residual collagen level at 10 uM after 180 mins by Sirius red colorimetric assay

C[C@H]1C[C@@H]2CN3[C@](CC[C@@]4(C)[C@]5(C)CCC[C@]34OC(=O)C5)(C1)O2
Activity [1]: 40%
Activity [2]: Dose-dependent effect
Activity [3]: 46.6%
Activity [4]: 47.8%

CC1=CC(=O)[C@H]2CC(=O)[C@H]3[C@@](C)(C[C@@]45OC(=O)C[C@]3(C)[C@]4(C)CC[C@]34C[C@@H](C)C[C@H](CN35)O4)[C@@H]2C1
Activity [3]: 40.4%
Activity [4]: 45%

CC1=CC(=O)CCC1
Activity [2]: inactive

COC(=O)C[C@@]1(C)[C@H]2C(=O)C[C@@H]3C(=O)C=C(C)C[C@H]3[C@]2(C)C=C2N3C[C@H]4C[C@H](C)C[C@]3(CC[C@]21C)O4
Activity [2]: inactive
